Test results published in US10167262B2, “Herbicidal substituted 3-arylpyrazoles” (FMC CORPORATION, priority 2014, dated 2019).

Assays:
Format in all cases: in vivo
[1] = system: barnyardgrass (Echinochloa crus-galli); experiment: Test A pre-/postemergence greenhouse herbicide test, visual injury rating 0-100
How it was run: (§1)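 Visual injury scored on a 0–100 scale versus untreated controls roughly 10 days after treatment in greenhouse. Treatments were preemergence soil sprays plus postemergence sprays to plants 2–10 cm tall at one- to two-leaf stage, in a surfactant-containing solvent formulation.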

[2] = system: corn (Zea mays); experiment: as above
How it was run: as §1

[3] = system: giant foxtail (Setaria faberii); experiment: as above
How it was run: as §1

[4] = system: large (Lg) crabgrass (Digitaria sanguinalis); experiment: as above
How it was run: as §1

[5] = system: morningglory (Ipomoea spp.); experiment: as above; settings: for Morningglory plant response rating (0 = no effect, 100 = complete control): 125 g ai/ha
How it was run: as §1

[6] = system: pigweed (Amaranthus retroflexus); experiment: as above
How it was run: as §1

[7] = system: velvetleaf (Abutilon theophrasti); experiment: as above
How it was run: as §1

[8] = system: wheat (Triticum aestivum); experiment: as above
How it was run: as §1

[9] = system: barnyardgrass (Echinochloa crus-galli); experiment: Test B flooded paddy test, plant response rating 0-100; settings: Flood, 250 g ai/ha; scale 0 to 100 (0 no effect, 100 complete control); 13 to 15 days
How it was run: (§2)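 Under a constant 3 cm flood, test compounds went directly into the paddy water. Following 13 to 15 days of greenhouse growth, treated species and controls were compared by eye.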

[10] = system: ducksalad (Heteranthera limosa); experiment: as above; settings: Flood, 250 g ai/ha; scale 0 to 100 (0 no effect, 100 complete control); 13 to 15 days
How it was run: as §2

[11] = system: rice (Oryza sativa); experiment: as above; settings: Flood, 250 g ai/ha; scale 0 to 100 (0 no effect, 100 complete control); 13 to 15 days
How it was run: as §2

[12] = system: sedge, umbrella (small-flower umbrella sedge, Cyperus difformis); experiment: as above; settings: Flood, 250 g ai/ha; scale 0 to 100 (0 no effect, 100 complete control); 13 to 15 days
How it was run: as §2

Compound | Plant response rating (0 to 100 scale), Barnyardgrass ([1]; Postemergence, 125 g ai/ha) | Plant response rating (0 to 100 scale), Barnyardgrass ([1]; Postemergence, 500 g ai/ha) | Barnyardgrass plant response rating (0 = no effect, 100 = complete control) ([1]; Preemergence, 125 g ai/ha) | Plant response rating (0 to 100 scale), Barnyardgrass ([1]; Preemergence, 500 g ai/ha) | Plant response rating (0 to 100 scale), Corn ([2]; Postemergence, 125 g ai/ha) | Plant response rating (0 to 100 scale), Corn ([2]; Postemergence, 500 g ai/ha) | Corn plant response rating (0 = no effect, 100 = complete control) ([2]; Preemergence, 125 g ai/ha) | Plant response rating (0 to 100 scale), Corn ([2]; Preemergence, 500 g ai/ha) | Plant response rating (0 to 100 scale), Foxtail, Giant ([3]; Postemergence, 125 g ai/ha) | Plant response rating (0 to 100 scale), Foxtail, Giant ([3]; Postemergence, 500 g ai/ha) | Foxtail, Giant plant response rating (0 = no effect, 100 = complete control) ([3]; Preemergence, 125 g ai/ha) | Plant response rating (0 to 100 scale), Foxtail, Giant ([3]; Preemergence, 500 g ai/ha) | Plant response rating (0 to 100 scale), Crabgrass, Large ([4]; Postemergence, 125 g ai/ha) | Plant response rating (0 to 100 scale), Crabgrass, Large ([4]; Postemergence, 500 g ai/ha) | Crabgrass, Large plant response rating (0 = no effect, 100 = complete control) ([4]; Preemergence, 125 g ai/ha) | Plant response rating (0 to 100 scale), Crabgrass, Large ([4]; Preemergence, 500 g ai/ha) | Plant response rating, Barnyardgrass [9] | Plant response rating, Ducksalad [10] | Plant response rating, Rice [11] | Plant response rating, Sedge, Umbrella [12] | also measured
N#CCn1cc(C(=O)c2ccccc2)c(-c2cc(Cl)cc(Cl)c2)n1 [Compound 43] | 0 | 0 | 0 | 0 | 0 | 0 | 0 | 0 | 0 | 0 | 0 | 0 | 0 | 0 | 0 | 0 | 0 | 0 | 0 | 0 | Morningglory plant response rating (0 = no effect, 100 = complete control) ([5]; Preemergence): 0; Plant response rating (0 to 100 scale), Morningglory ([5]; Preemergence, 500 g ai/ha): 0; Plant response rating (0 to 100 scale), Pigweed ([6]; Postemergence, 125 g ai/ha): 50; Plant response rating (0 to 100 scale), Pigweed ([6]; Postemergence, 500 g ai/ha): 80; Pigweed plant response rating (0 = no effect, 100 = complete control) ([6]; Preemergence, 125 g ai/ha): 0; Plant response rating (0 to 100 scale), Pigweed ([6]; Preemergence, 500 g ai/ha): 40; Plant response rating (0 to 100 scale), Velvetleaf ([7]; Postemergence, 125 g ai/ha): 20; Plant response rating (0 to 100 scale), Velvetleaf ([7]; Postemergence, 500 g ai/ha): 80; Velvetleaf plant response rating (0 = no effect, 100 = complete control) ([7]; Preemergence, 125 g ai/ha): 30; Plant response rating (0 to 100 scale), Velvetleaf ([7]; Preemergence, 500 g ai/ha): 30; Plant response rating (0 to 100 scale), Wheat ([8]; Postemergence, 125 g ai/ha): 0; Plant response rating (0 to 100 scale), Wheat ([8]; Postemergence, 500 g ai/ha): 0; Wheat plant response rating (0 = no effect, 100 = complete control) ([8]; Preemergence, 125 g ai/ha): 0; Plant response rating (0 to 100 scale), Wheat ([8]; Preemergence, 500 g ai/ha): 0
CC(=O)Cn1cc(C(=O)c2ccccc2)c(-c2cc(Cl)cc(Cl)c2)n1 [Compound 45] | 0 | 0 | 0 | 0 | 0 | 0 | 0 | 0 | 0 | 0 | 0 | 0 | 0 | 0 | 0 | 0 | 0 | 0 | 0 | 0 | Morningglory plant response rating (0 = no effect, 100 = complete control) ([5]; Preemergence): 0; Plant response rating (0 to 100 scale), Morningglory ([5]; Preemergence, 500 g ai/ha): 0; Plant response rating (0 to 100 scale), Pigweed ([6]; Postemergence, 125 g ai/ha): 40; Plant response rating (0 to 100 scale), Pigweed ([6]; Postemergence, 500 g ai/ha): 60; Pigweed plant response rating (0 = no effect, 100 = complete control) ([6]; Preemergence, 125 g ai/ha): 0; Plant response rating (0 to 100 scale), Pigweed ([6]; Preemergence, 500 g ai/ha): 70; Plant response rating (0 to 100 scale), Velvetleaf ([7]; Postemergence, 125 g ai/ha): 60; Plant response rating (0 to 100 scale), Velvetleaf ([7]; Postemergence, 500 g ai/ha): 80; Velvetleaf plant response rating (0 = no effect, 100 = complete control) ([7]; Preemergence, 125 g ai/ha): 20; Plant response rating (0 to 100 scale), Velvetleaf ([7]; Preemergence, 500 g ai/ha): 30; Plant response rating (0 to 100 scale), Wheat ([8]; Postemergence, 125 g ai/ha): 0; Plant response rating (0 to 100 scale), Wheat ([8]; Postemergence, 500 g ai/ha): 0; Wheat plant response rating (0 = no effect, 100 = complete control) ([8]; Preemergence, 125 g ai/ha): 0; Plant response rating (0 to 100 scale), Wheat ([8]; Preemergence, 500 g ai/ha): 0
CCn1cc(C(=O)c2ccccc2)c(-c2cc(F)cc(C(F)(F)F)c2)n1 [Compound 48] |  |  |  |  |  |  |  |  |  |  |  |  |  |  |  |  | 0 | 0 | 0 | 0 | Plant response rating (0 to 100 scale), Barnyardgrass ([1]; Postemergence, 1000 g ai/ha): 20; Plant response rating (0 to 100 scale), Barnyardgrass ([1]; Preemergence, 1000 g ai/ha): 0; Plant response rating (0 to 100 scale), Corn ([2]; Postemergence, 1000 g ai/ha): 0; Plant response rating (0 to 100 scale), Corn ([2]; Preemergence, 1000 g ai/ha): 0; Plant response rating (0 to 100 scale), Foxtail, Giant ([3]; Postemergence, 1000 g ai/ha): 20; Plant response rating (0 to 100 scale), Foxtail, Giant ([3]; Preemergence, 1000 g ai/ha): 0; Plant response rating (0 to 100 scale), Crabgrass, Large ([4]; Postemergence, 1000 g ai/ha): 20; Plant response rating (0 to 100 scale), Crabgrass, Large ([4]; Preemergence, 1000 g ai/ha): 0; Plant response rating (0 to 100 scale), Morningglory ([5]; Postemergence, 1000 g ai/ha): 20; Plant response rating (0 to 100 scale), Morningglory ([5]; Preemergence, 1000 g ai/ha): 0; Plant response rating (0 to 100 scale), Pigweed ([6]; Postemergence, 1000 g ai/ha): 90; Plant response rating (0 to 100 scale), Pigweed ([6]; Preemergence, 1000 g ai/ha): 100; Plant response rating (0 to 100 scale), Velvetleaf ([7]; Postemergence, 1000 g ai/ha): 90; Plant response rating (0 to 100 scale), Velvetleaf ([7]; Preemergence, 1000 g ai/ha): 80; Plant response rating (0 to 100 scale), Wheat ([8]; Postemergence, 1000 g ai/ha): 0; Plant response rating (0 to 100 scale), Wheat ([8]; Preemergence, 1000 g ai/ha): 0
